We go through 1 compound from patent publication US10463658B2, “Method of inhibiting FLT3 kinase” (AROG Pharmaceuticals, LLC, priority 2013, dated 2019).

The target of one experiment is T1, FLT3 autoinhibited (Homo sapiens, UniProt P36888).
T1 construct: host or cells: E. coli BL21-derived host (T7 phage) or HEK-293
T1 sequence (P36888 564-993 limits assumed): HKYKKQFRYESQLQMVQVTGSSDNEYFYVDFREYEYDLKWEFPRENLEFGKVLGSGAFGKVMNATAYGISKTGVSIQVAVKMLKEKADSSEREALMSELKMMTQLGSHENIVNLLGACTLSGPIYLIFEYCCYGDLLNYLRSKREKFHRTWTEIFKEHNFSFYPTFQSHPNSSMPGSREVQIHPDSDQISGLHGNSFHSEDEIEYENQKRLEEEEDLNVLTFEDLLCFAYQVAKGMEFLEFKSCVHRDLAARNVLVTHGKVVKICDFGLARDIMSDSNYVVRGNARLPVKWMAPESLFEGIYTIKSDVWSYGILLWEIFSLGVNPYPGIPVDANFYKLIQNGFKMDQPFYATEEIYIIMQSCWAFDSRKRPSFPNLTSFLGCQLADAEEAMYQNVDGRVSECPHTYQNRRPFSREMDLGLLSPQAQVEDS
Description: KINOMEscan KdElect competitive binding assay, autoinhibited FLT3. As to conditions: tosylate salt; average Kd; read-out: Binding Constant (Kd), FLT3 autoinhibited. The text has this:
(§1) Competitive binding assay.
(§2) The lysates were then centrifuged and filtered.

A further experiment has as its target T2, FLT3 wild type (Homo sapiens, UniProt P36888).
T2 construct: host or cells: E. coli BL21-derived host (T7 phage) or HEK-293
T2 sequence (P36888 610-943 limits assumed): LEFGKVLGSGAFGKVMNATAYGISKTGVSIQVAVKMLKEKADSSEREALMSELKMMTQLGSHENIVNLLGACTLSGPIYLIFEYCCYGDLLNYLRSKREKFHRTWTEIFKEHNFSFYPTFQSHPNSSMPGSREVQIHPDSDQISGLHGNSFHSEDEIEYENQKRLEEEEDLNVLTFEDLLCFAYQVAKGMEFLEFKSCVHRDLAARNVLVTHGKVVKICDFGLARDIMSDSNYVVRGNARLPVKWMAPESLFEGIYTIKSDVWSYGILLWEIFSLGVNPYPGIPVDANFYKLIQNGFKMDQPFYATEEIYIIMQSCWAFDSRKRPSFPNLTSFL
Put plainly: KINOMEscan KdElect competitive binding assay, wild type FLT3. The conditions noted are these: CP-673,451 as tosylate salt; read-out: Binding Constant (Kd), FLT3 wild type.

The test system of experiment [1] is Molm 13-RES-luc cells that expressed FLT3-ITD/D835Y. Description: MTT assay in tandutinib-resistant Molm 13-RES-luc cells. Type of experiment: cell-based. As to conditions: Homo sapiens, tandutinib resistant Molm 13 cells, mean of 3 studies with 6 replicates each (n=18), read-out: IC50 pFLT3 (text: cell viability, MTT assay).
The target of another experiment is T3, FLT3 R834Q (Homo sapiens, UniProt P36888, R834Q).
T3 construct: host or cells: E. coli BL21-derived host (T7 phage) or HEK-293
T3 sequence (P36888 610-943 R834Q limits assumed): T2 sequence (P36888 610-943 limits assumed) with R225Q
Put plainly: KINOMEscan KdElect competitive binding assay, FLT3 R834Q. The conditions noted are these: tosylate salt; read-out: Binding Constant (Kd), FLT3 R834Q.
Text: as §1, §2

The next experiment addresses T4, FLT3 N841I (Homo sapiens, UniProt P36888, N841I).
T4 construct: host or cells: E. coli BL21-derived host (T7 phage) or HEK-293
T4 sequence (P36888 610-943 N841I limits assumed): T2 sequence (P36888 610-943 limits assumed) with N232I
Description: KINOMEscan KdElect competitive binding assay, FLT3 N841I. The conditions noted are these: tosylate salt; read-out: Binding Constant (Kd), FLT3 N841I.
Text: as §1, §2

Another experiment has as its target T5, FLT3 K663Q (Homo sapiens, UniProt P36888, K663Q).
T5 construct: host or cells: E. coli BL21-derived host (T7 phage) or HEK-293
T5 sequence (P36888 610-943 K663Q limits assumed): T2 sequence (P36888 610-943 limits assumed) with K54Q
Put plainly: KINOMEscan KdElect competitive binding assay, FLT3 K663Q. As to conditions: tosylate salt; read-out: Binding Constant (Kd), FLT3 K663Q.
Text: as §1, §2

In another experiment the target is T6, FLT3 D835H (Homo sapiens, UniProt P36888, D835H).
T6 construct: host or cells: E. coli BL21-derived host (T7 phage) or HEK-293
T6 sequence (P36888 610-943 D835H limits assumed): T2 sequence (P36888 610-943 limits assumed) with D226H
Put plainly: KINOMEscan KdElect competitive binding assay, FLT3 D835H. As to conditions: tosylate salt.
Text: as §1, §2

As a reminder, the Kd is the free concentration of one partner at which half of the binding sites on the other are occupied at equilibrium, for simple one-to-one binding. One may read the IC50 as the concentration needed to halve the response being measured.

Substitutions are numbered along the chain they refer to.

`COCCOc1ccc2c(c1)ncn2-c1ccc2cccc(N3CCC(N)CC3)c2n1` [CP-673,451]: the Kd is 18 nM on FLT3 autoinhibited; 0.35 nM at FLT3 wild type; 0.65 nM on FLT3 R834Q; 0.39 nM on FLT3 N841I; 0.62 nM at FLT3 K663Q; 0.16 nM on FLT3 D835H. In experiment [1], the 50% inhibitory concentration (IC50) turned out to be 3.3 nM.
